Values quoted from earlier work in patent US20230106284A1, “SYSTEM AND METHOD FOR GENERATING POTENTIAL DRUG COMPOSITIONS FOR DISEASE TARGET” (Innoplexus AG, priority 2020, published 2023).

Conditions: oral delivery

## O=C(O)c1ccc(-n2nc(-c3ccccc3O)nc2-c2ccccc2O)cc1 [DFX, deferasirox]
  bioavailability: about 70%
  volume of distribution: 14.37±2.69 litter
